Measurements as given in ChEMBL document CHEMBL3808326, “Design and synthesis of novel hydroxypyridinone derivatives as potential tyrosinase inhibitors” (Bioorg Med Chem Lett, 2016).
Calls of active or inactive are those of the source. The calls are words filed in the database; no cut-off is given here.

How the values were obtained:
Tyrosinase [1] = target: T1, Tyrosinase (Agaricus bisporus, UniProt O42713); test: Inhibition of monophenolase activity of mushroom tyrosinase using L-tyrosine as substrate incubated for 10 mins by UV-Visible spectrophotometric analysis
T1 sequence (O42713 whole entry): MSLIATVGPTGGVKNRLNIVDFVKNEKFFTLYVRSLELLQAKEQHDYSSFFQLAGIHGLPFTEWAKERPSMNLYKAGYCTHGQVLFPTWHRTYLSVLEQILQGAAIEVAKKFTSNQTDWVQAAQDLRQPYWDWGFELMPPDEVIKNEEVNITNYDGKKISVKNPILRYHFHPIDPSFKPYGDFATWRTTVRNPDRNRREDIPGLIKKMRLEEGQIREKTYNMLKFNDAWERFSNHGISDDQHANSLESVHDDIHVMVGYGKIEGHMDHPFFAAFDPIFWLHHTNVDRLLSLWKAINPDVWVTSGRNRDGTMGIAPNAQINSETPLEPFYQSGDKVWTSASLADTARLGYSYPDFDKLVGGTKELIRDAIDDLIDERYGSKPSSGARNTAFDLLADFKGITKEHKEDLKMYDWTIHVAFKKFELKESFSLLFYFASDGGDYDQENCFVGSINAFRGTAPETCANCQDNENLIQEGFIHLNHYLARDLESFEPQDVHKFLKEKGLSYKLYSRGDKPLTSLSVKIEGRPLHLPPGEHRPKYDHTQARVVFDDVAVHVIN

[2] = Copper chelating activity in pH 7.4 copper sulfate solution at 2.857 mM after 10 mins by tetramethylmurexide dye based assay relative to control; format: physicochemical; conditions: pH 7.4, 10 min, 2857 µM
Tyrosinase [3] = target: T1, Tyrosinase; test: Inhibition of diphenolase activity of mushroom tyrosinase using L-DOPA as substrate assessed as enzyme-inhibitor complex incubated for 10 mins by Lineweaver-Burk plot method
[4] = Copper chelating activity in pH 5 copper sulfate solution at 2.857 mM after 10 mins by tetramethylmurexide dye based assay relative to control; format: physicochemical; conditions: pH 5, 10 min, 2857 µM
[5] = target: T2, Tyrosinase (Agaricus bisporus) (UniProt O42713); test: Reversible inhibition of diphenolase activity of mushroom tyrosinase using L-DOPA as substrate at 4.17 to 33.33 uM incubated for 10 mins by UV-Visible spectrophotometric analysis
T2 sequence (whole entry): T1 sequence (O42713 whole entry)

[6] = Copper reducing activity in 0.4 mM cupric sulfate solution assessed as cuprous ion formation up to 0.15 mM after 10 mins by bathocuproinedisulfonic acid dye based spectrophotometric analysis; format: physicochemical
Tyrosinase [7] = target: T1, Tyrosinase; test: Inhibition of diphenolase activity of mushroom tyrosinase using L-DOPA as substrate incubated for 10 mins by UV-Visible spectrophotometric analysis
Tyrosinase [8] = target: T1, Tyrosinase; test: Inhibition of diphenolase activity of mushroom tyrosinase using L-DOPA as substrate assessed as enzyme-substrate-inhibitor complex incubated for 10 mins by Lineweaver-Burk plot method
[9] = target: T2, Tyrosinase (Agaricus bisporus); test: Competitive-uncompetitive-mixed type inhibition of diphenolase activity of mushroom tyrosinase using L-DOPA as substrate incubated for 10 mins by Lineweaver-Burk plot method

Which IC50 (Tyrosinase [1]) does the source give for `CC(C)[C@H](NC(=O)OCc1ccccc1)C(=O)OCc1cc(=O)c(O)c[nH]1` here?
The IC50 was 12.5 µM.

For `CC[C@H](C)[C@H](NC(=O)OCc1ccccc1)C(=O)OCc1cc(=O)c(O)c[nH]1`, which IC50 (Tyrosinase [1]) is on record?
The IC50 was 15.6 µM.

What does the source list for `O=C(N[C@@H](Cc1ccccc1)C(=O)OCc1cc(=O)c(O)c[nH]1)OCc1ccccc1`?
Activity [2]: 88.92%; Ki (Tyrosinase [3]): 17.2 µM; Activity [4]: 97.52%; inhibition [5]: Active; Activity [6]: Active; IC50 (Tyrosinase [7]): 8.97 µM; IC50 (Tyrosinase [1]): 1.95 µM; Ki (Tyrosinase [8]): 22.1 µM; inhibition [9]: Active

Which IC50 (Tyrosinase [1]) does the source give for `CC(C)[C@H](NC(=O)[C@@H](N)Cc1ccccc1)C(=O)NCc1cc(=O)c(O)c[nH]1` here?
Its IC50 is 14.3 µM.

With `CC(C)C[C@H](NC(=O)[C@@H](N)Cc1ccccc1)C(=O)NCc1cc(=O)c(O)c[nH]1` as the molecule, how does the IC50 (Tyrosinase [1]) read?
Its IC50 is 6.93 µM.

For `N[C@@H](Cc1ccccc1)C(=O)N[C@@H](Cc1ccccc1)C(=O)NCc1cc(=O)c(O)c[nH]1`, which Ki (Tyrosinase [3]) is on record?
The Ki was 34.4 µM.

What about the inhibition [5] of the same molecule?
Its inhibition is “Active”.

And the IC50 (Tyrosinase [7])?
The IC50 was 26.2 µM.

What about the IC50 (Tyrosinase [1]) of the same molecule?
Its IC50 is 2.79 µM.

And the Ki (Tyrosinase [8])?
The Ki was 79 µM.

What about the inhibition [9] of the same molecule?
The inhibition was “Active”.

For `C[C@H](NC(=O)OCc1ccccc1)C(=O)OCc1cc(=O)c(O)c[nH]1`, which IC50 (Tyrosinase [1]) is on record?
The IC50 was 11.8 µM.

For `CC(C)C[C@H](NC(=O)OCc1ccccc1)C(=O)OCc1cc(=O)c(O)c[nH]1`, which IC50 (Tyrosinase [1]) is on record?
The IC50 was 28.7 µM.
